{"source": "the supplement of paper PMC10307832", "experiment_in_all_cases": "relative viability (nuclei count vs DMSO), 5 days (fraction); higher = more cells survive", "key": {"Elesclomol + Linsitinib": {"compound": "CN(NC(=O)CC(=O)NN(C)C(=S)c1ccccc1)C(=S)c1ccccc1 [Elesclomol] + C[C@]1(O)C[C@@H](c2nc(-c3ccc4ccc(-c5ccccc5)nc4c3)c3c(N)nccn32)C1 [Linsitinib] (partner 1 µM)", "outline": "(§1)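 Lung cancer cell lines in 1536-well plates were dosed by pin tool the day after seeding, either with one drug alone or with a fixed anchor-drug dose plus five library-drug doses (not always all listed) in √10 steps. After 5 days, cells were fixed and their nuclei stained in one step (final 0.05% Triton X-100, 1% formaldehyde, 1 ug/ml Hoechst), then counted on 4× images. Relative viability is the nuclei count in treated wells divided by that in vehicle wells. Values are medians of duplicate plates.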"}, "Elesclomol + Crizotinib": {"compound": "CN(NC(=O)CC(=O)NN(C)C(=S)c1ccccc1)C(=S)c1ccccc1 [Elesclomol] + C[C@@H](Oc1cc(-c2cnn(C3CCNCC3)c2)cnc1N)c1c(Cl)ccc(F)c1Cl [Crizotinib] (partner 1 µM)", "outline": "as §1"}, "Elesclomol + AZD7762": {"compound": "CN(NC(=O)CC(=O)NN(C)C(=S)c1ccccc1)C(=S)c1ccccc1 [Elesclomol] + NC(=O)Nc1cc(-c2cccc(F)c2)sc1C(=O)N[C@H]1CCCNC1 [AZD7762] (partner 0.2 µM)", "outline": "as §1"}, "Elesclomol + Pictilisib": {"compound": "CN(NC(=O)CC(=O)NN(C)C(=S)c1ccccc1)C(=S)c1ccccc1 [Elesclomol] + CS(=O)(=O)N1CCN(Cc2cc3nc(-c4cccc5[nH]ncc45)nc(N4CCOCC4)c3s2)CC1 [Pictilisib] (partner 1 µM)", "outline": "as §1"}, "Elesclomol + Navitoclax": {"compound": "CN(NC(=O)CC(=O)NN(C)C(=S)c1ccccc1)C(=S)c1ccccc1 [Elesclomol] + CC1(C)CCC(c2ccc(Cl)cc2)=C(CN2CCN(c3ccc(C(=O)NS(=O)(=O)c4ccc(N[C@H](CCN5CCOCC5)CSc5ccccc5)c(S(=O)(=O)C(F)(F)F)c4)cc3)CC2)C1 [Navitoclax] (partner 0.5 µM)", "outline": "as §1"}, "Elesclomol + Foretinib": {"compound": "CN(NC(=O)CC(=O)NN(C)C(=S)c1ccccc1)C(=S)c1ccccc1 [Elesclomol] + COc1cc2c(Oc3ccc(NC(=O)C4(C(=O)Nc5ccc(F)cc5)CC4)cc3F)ccnc2cc1OCCCN1CCOCC1 [Foretinib] (partner 0.25 µM)", "outline": "as §1"}, "Elesclomol + Lapatinib": {"compound": "CN(NC(=O)CC(=O)NN(C)C(=S)c1ccccc1)C(=S)c1ccccc1 [Elesclomol] + CS(=O)(=O)CCNCc1ccc(-c2ccc3ncnc(Nc4ccc(OCc5cccc(F)c5)c(Cl)c4)c3c2)o1 [Lapatinib] (partner 2 µM)", "outline": "as §1"}, "Elesclomol + Olaparib": {"compound": "CN(NC(=O)CC(=O)NN(C)C(=S)c1ccccc1)C(=S)c1ccccc1 [Elesclomol] + O=C(c1cc(Cc2n[nH]c(=O)c3ccccc23)ccc1F)N1CCN(C(=O)C2CC2)CC1 [Olaparib] (partner 8 µM)", "outline": "as §1"}, "Elesclomol + Bortezomib": {"compound": "CN(NC(=O)CC(=O)NN(C)C(=S)c1ccccc1)C(=S)c1ccccc1 [Elesclomol] + CC(C)C[C@H](NC(=O)[C@H](Cc1ccccc1)NC(=O)c1cnccn1)B(O)O [Bortezomib] (partner 0.002 µM)", "outline": "as §1"}, "Elesclomol + Alpelisib": {"compound": "CN(NC(=O)CC(=O)NN(C)C(=S)c1ccccc1)C(=S)c1ccccc1 [Elesclomol] + Cc1nc(NC(=O)N2CCC[C@H]2C(N)=O)sc1-c1ccnc(C(C)(C)C(F)(F)F)c1 [Alpelisib] (partner 2 µM)", "outline": "as §1"}, "Elesclomol": {"compound": "CN(NC(=O)CC(=O)NN(C)C(=S)c1ccccc1)C(=S)c1ccccc1 [Elesclomol]", "outline": "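A plate was accepted only when its control CV was below 25% and the cells had doubled at least once. Viability is defined from nuclear counts as treated wells divided by vehicle wells, with the median taken across plates. That median covers lung cancer cell lines grown in 1536-well plates, dosed by pinning at five √10-spaced library-drug concentrations, and counted in MetaXpress from 4× Hoechst images after 5 days.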"}}, "data": [{"cell line": "NCI-H1703", "values": [{"measurement": "relative viability", "setting": "Elesclomol + Linsitinib; first compound 0.003162 µM", "value": 0.179}, {"measurement": "relative viability", "setting": "Elesclomol + Linsitinib; first compound 0.01 µM", "value": 0.122}, {"measurement": "relative viability", "setting": "Elesclomol + Linsitinib; first compound 0.03162 µM", "value": 0.0723}, {"measurement": "relative viability", "setting": "Elesclomol + Linsitinib; first compound 0.1 µM", "value": 0.0652}, {"measurement": "relative viability", "setting": "Elesclomol + Crizotinib; first compound 0.003162 µM", "value": 0.151}, {"measurement": "relative viability", "setting": "Elesclomol + Crizotinib; first compound 0.01 µM", "value": 0.137}, {"measurement": "relative viability", "setting": "Elesclomol + Crizotinib; first compound 0.03162 µM", "value": 0.0928}, {"measurement": "relative viability", "setting": "Elesclomol + Crizotinib; first compound 0.1 µM", "value": 0.0853}, {"measurement": "relative viability", "setting": "Elesclomol + AZD7762; first compound 0.003162 µM", "value": 0.132}, {"measurement": "relative viability", "setting": "Elesclomol + AZD7762; first compound 0.01 µM", "value": 0.0974}, {"measurement": "relative viability", "setting": "Elesclomol + AZD7762; first compound 0.03162 µM", "value": 0.124}, {"measurement": "relative viability", "setting": "Elesclomol + AZD7762; first compound 0.1 µM", "value": 0.0978}, {"measurement": "relative viability", "setting": "Elesclomol + Pictilisib; first compound 0.003162 µM", "value": 0.198}, {"measurement": "relative viability", "setting": "Elesclomol + Pictilisib; first compound 0.01 µM", "value": 0.106}, {"measurement": "relative viability", "setting": "Elesclomol + Pictilisib; first compound 0.03162 µM", "value": 0.133}, {"measurement": "relative viability", "setting": "Elesclomol + Pictilisib; first compound 0.1 µM", "value": 0.128}, {"measurement": "relative viability", "setting": "Elesclomol + Navitoclax; first compound 0.003162 µM", "value": 0.141}, {"measurement": "relative viability", "setting": "Elesclomol + Navitoclax; first compound 0.01 µM", "value": 0.0995}, {"measurement": "relative viability", "setting": "Elesclomol + Navitoclax; first compound 0.03162 µM", "value": 0.116}, {"measurement": "relative viability", "setting": "Elesclomol + Navitoclax; first compound 0.1 µM", "value": 0.107}, {"measurement": "relative viability", "setting": "Elesclomol + Foretinib; first compound 0.003162 µM", "value": 0.26}, {"measurement": "relative viability", "setting": "Elesclomol + Foretinib; first compound 0.01 µM", "value": 0.207}, {"measurement": "relative viability", "setting": "Elesclomol + Foretinib; first compound 0.03162 µM", "value": 0.129}, {"measurement": "relative viability", "setting": "Elesclomol + Foretinib; first compound 0.1 µM", "value": 0.133}, {"measurement": "relative viability", "setting": "Elesclomol + Lapatinib; first compound 0.003162 µM", "value": 0.262}, {"measurement": "relative viability", "setting": "Elesclomol + Lapatinib; first compound 0.01 µM", "value": 0.216}, {"measurement": "relative viability", "setting": "Elesclomol + Lapatinib; first compound 0.03162 µM", "value": 0.157}, {"measurement": "relative viability", "setting": "Elesclomol + Lapatinib; first compound 0.1 µM", "value": 0.129}, {"measurement": "relative viability", "setting": "Elesclomol + Olaparib; first compound 0.003162 µM", "value": 0.173}, {"measurement": "relative viability", "setting": "Elesclomol + Olaparib; first compound 0.01 µM", "value": 0.0985}, {"measurement": "relative viability", "setting": "Elesclomol + Olaparib; first compound 0.03162 µM", "value": 0.093}, {"measurement": "relative viability", "setting": "Elesclomol + Olaparib; first compound 0.1 µM", "value": 0.0575}, {"measurement": "relative viability", "setting": "Elesclomol + Bortezomib; first compound 0.003162 µM", "value": 0.136}, {"measurement": "relative viability", "setting": "Elesclomol + Bortezomib; first compound 0.01 µM", "value": 0.0882}, {"measurement": "relative viability", "setting": "Elesclomol + Bortezomib; first compound 0.03162 µM", "value": 0.104}, {"measurement": "relative viability", "setting": "Elesclomol + Bortezomib; first compound 0.1 µM", "value": 0.12}, {"measurement": "relative viability", "setting": "Elesclomol + Alpelisib; first compound 0.003162 µM", "value": 0.225}, {"measurement": "relative viability", "setting": "Elesclomol + Alpelisib; first compound 0.01 µM", "value": 0.135}, {"measurement": "relative viability", "setting": "Elesclomol + Alpelisib; first compound 0.03162 µM", "value": 0.0986}, {"measurement": "relative viability", "setting": "Elesclomol + Alpelisib; first compound 0.1 µM", "value": 0.0874}, {"measurement": "relative viability", "setting": "Elesclomol; 0.003162 µM", "value": 0.273}, {"measurement": "relative viability", "setting": "Elesclomol; 0.01 µM", "value": 0.173}, {"measurement": "relative viability", "setting": "Elesclomol; 0.03162 µM", "value": 0.0832}, {"measurement": "relative viability", "setting": "Elesclomol; 0.1 µM", "value": 0.101}]}]}
